Patent US7078428B2, “Isoindolone derivatives, preparation process and intermediates of this process, their use as medicaments, and pharmaceutical compositions comprising them” (Sanofi-Aventis Deutschland GmbH, priority 2002, dated 2006)
pIC50: −log10 of the molar value.

Columns and labels:
NHE1 = target: T1, NHE1 (Homo sapiens, UniProt P19634); experiment: NHE inhibition FLIPR test (intracellular pH recovery, BCECF) in transfected LAP-1 cells; assay type: cell-based; conditions: transfected cell line (parental LAP-1) expressing the NHE-1 subtype, pHi recovery after acidification
T1 construct: expressed in transfected cells
T1 sequence (P19634 whole entry, species assumed): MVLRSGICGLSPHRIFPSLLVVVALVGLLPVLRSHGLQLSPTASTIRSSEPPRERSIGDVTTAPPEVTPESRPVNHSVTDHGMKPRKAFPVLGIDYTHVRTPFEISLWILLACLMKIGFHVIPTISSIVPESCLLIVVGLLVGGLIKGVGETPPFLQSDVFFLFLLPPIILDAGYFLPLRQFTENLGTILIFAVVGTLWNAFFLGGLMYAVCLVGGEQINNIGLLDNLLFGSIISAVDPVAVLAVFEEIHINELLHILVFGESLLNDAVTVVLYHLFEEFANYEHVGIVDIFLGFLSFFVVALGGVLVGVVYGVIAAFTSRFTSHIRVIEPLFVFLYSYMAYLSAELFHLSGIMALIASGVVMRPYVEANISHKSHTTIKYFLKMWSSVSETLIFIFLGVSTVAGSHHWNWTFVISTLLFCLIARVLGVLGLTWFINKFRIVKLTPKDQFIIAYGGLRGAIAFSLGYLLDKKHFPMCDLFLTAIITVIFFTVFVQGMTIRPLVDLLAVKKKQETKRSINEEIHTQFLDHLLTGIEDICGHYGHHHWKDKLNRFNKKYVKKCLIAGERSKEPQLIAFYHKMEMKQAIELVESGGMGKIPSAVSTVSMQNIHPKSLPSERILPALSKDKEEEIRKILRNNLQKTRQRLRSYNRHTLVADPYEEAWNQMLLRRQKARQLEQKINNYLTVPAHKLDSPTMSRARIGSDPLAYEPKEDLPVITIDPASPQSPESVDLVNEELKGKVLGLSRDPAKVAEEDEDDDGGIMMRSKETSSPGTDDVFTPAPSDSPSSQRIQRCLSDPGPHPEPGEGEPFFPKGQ
Protocol: The NHE inhibitory activities (IC50 values) of the compounds according to the invention were determined by a FLIPR test.
The test is performed in the FLIPR (Fluorescent Imaging Plate Reader) equipped with clear-bottomed and black-walled 96-well microtitration plates.
The growth medium for the transfected cells (Iscove +10% foetal calf serum) also comprises G418 as selection antibiotic to ensure the presence of transfected sequences.
The actual test begins by eliminating the growth medium and adding 100 μl of loading buffer per well (5 μM of BCECF-AM [2′,7′-bis(2-carboxyethyl)-5-(6)-carboxyfluoresceine acetoxymethyl ester] in 20 mM of NH4Cl, 115 mM of choline chloride, 1 mM of CaCl2, 5 mM of KCl, 20 mM of HEPES and 5 mM of glucose; pH 7.4 (adjusted with KOH). The cells are then incubated for 20 minutes at 37° C. This incubation results in the loading of the fluorescent dye into the cells, the fluorescence intensity of which depends on the pHi, and on the NH4Cl, which results in a slight basification of the cells.
The precursor BCECF-AM, a non-fluorescent dye, is, as an ester, capable of crossing the membrane. The actual dye, which is incapable of crossing the membrane, is released inside the cell by esterases.
After this 20-minute incubation, the loading buffer, which comprises NH4Cl and free BCECF-AM, is removed by washing three times in the cell washing device (Tecan Columbus), each wash being performed with 400 μl of washing buffer (133.8 mM of choline chloride, 4.7 mM of KCl, 1.25 mM of MgCl2, 1.25 mM of CaCl2, 0.97 mM of K2HPO4, 0.23 mM of KH2PO4, 5 mM of HEPES and 5 mM of glucose; pH 7.4 (adjusted with KOH)). The residual volume remaining in the wells is 90 μl (possibly between 50 and 125 μl). This washing step removes the free BCECF-AM and results in an intracellular acidification (pHi of 6.3-6.4) due to the removal of the external ammonium ions.
As the equilibrium of the intracellular ammonium with the aqueous ammonia and the protons, by removal of the extracellular ammonium and by the subsequent immediate crossing of the aqueous ammonia across the cell membrane, is disrupted, the washing process results in intracellular protons remaining, which is the cause of the intracellular acidification. This acidification can result finally in the death of the cells if it lasts long enough. It is important here for the washing buffer to be free of sodium (<1 mM), otherwise the extracellular sodium ions would result in an immediate increase in the pHi on account of the activity of the cloned NHE isoforms. It is also important for all the buffers used (loading buffer, washing buffer and regeneration buffer) not to contain any HCO3-ions, otherwise the presence of bicarbonate would result in the activation of bicarbonate-dependent systems that disrupt the pHi regulation, which systems are contained in the LAP-1 parental cell line.
The microtiter plates containing acidified cells are then transferred (up to 20 minutes after the acidification) to the FLIPR. In the FLIPR, the intracellular fluorescent dye is activated with light of a wavelength of 488 nm, which is generated by an argon laser, and the measuring parameters (laser power, illumination time and diaphragm of the […] camera integrated into the FLIPR) are chosen such that the average value of the fluorescent signal per well is between 30,000 and 35,000 relative fluorescence units.
The actual measurement in the FLIPR starts with a photograph being taken by the CCD camera every two seconds under software control. After 10 seconds, the increase in the intracellular pH is initiated by adding 90 μl of regeneration buffer (133.8 mM of NaCl, 4.7 mM of KCl, 1.25 mM of MgCl2, 1.25 mM of CaCl2, 0.97 mM of K2HPO4, 0.23 mM of KH2PO4, 10 mM of HEPES and 5 mM of glucose; pH 7.4 (adjusted with NaOH)) using a 96-well pipette device incorporated into the FLIPR. Some wells, to which is added pure regeneration buffer, serve as positive controls (100% NHE activity). […]

Compound | pIC50 (NHE1) | melting point [°C]
CC(C)CN1C(=O)c2ccc(C(C)(C)C)cc2C1CC(=O)N=C(N)N (stereo not drawn) [Example 10, N-[2-(6-tert-Butyl-2-isobutyl-3-oxo-2,3-dihydro-1H-isoindol-1-yl)acetyl]guanidine] | 7.82 | 214 to 215
NC(N)=NC(=O)CC1c2ccccc2C(=O)N1CC1CC1 (stereo not drawn) [Example 8, N-[2-(2-Cyclopropylmethyl-3-oxo-2,3-dihydro-1H-isoindol-1-yl)acetyl]guanidine] | 7.20 | 229
Cc1ccc2c(c1)C(=O)N(CC(C)C)C2CC(=O)N=C(N)N (stereo not drawn) [Example 34, N-[2-(2-Isobutyl-5-methyl-3-oxo-2,3-dihydro-1H-isoindol-1-yl)acetyl]guanidine] | 7.60 | 266
CC(C)CN1C(=O)c2cc(C(F)(F)F)ccc2C1CC(=O)N=C(N)N (stereo not drawn) [Example 14, N-[2-(2-Isobutyl-3-oxo-5-trifluoromethyl-2,3-dihydro-1H-isoindol-1-yl)-acetyl]-guanidine] | 6.99 | 224
CCCN1C(=O)c2ccccc2C1CC(=O)N=C(N)N (stereo not drawn) [Example 5, N-[2-(3-Oxo-2-propyl-2,3-dihydro-1H-isoindol-1-yl)acetyl]guanidine] | 7.04 | 229
CCN1C(=O)c2ccccc2C1CC(=O)N=C(N)N (stereo not drawn) [Example 6, N-[2-(2-Ethyl-3-oxo-2,3-dihydro-1H-isoindol-1-yl)acetyl]guanidine] | 6.68 | 223
CC(C)CN1C(=O)c2ccccc2C1CC(=O)N=C(N)N (single isomer, unassigned; (-)) [Example 3, (−)-N-[2-(2-Isobutyl-3-oxo-2,3-dihydro-1H-isoindol-1-yl)acetyl]guanidine] | 7.30 | 264
CC(C)CN1C(=O)c2ccc(C(F)(F)F)cc2C1CC(=O)N=C(N)N (stereo not drawn) [Example 15, N-[2-(2-Isobutyl-3-oxo-6-trifluoromethyl-2,3-dihydro-1H-isoindol-1-yl)-acetyl]guanidine] | 7.80 | 154
CC(C)CN1C(=O)c2cc(C(C)(C)C)ccc2C1CC(=O)N=C(N)N (stereo not drawn) [Example 11, N-[2-(5-tert-Butyl-2-isobutyl-3-oxo-2,3-dihydro-1H-isoindol-1-yl)acetyl]guanidine] | 7.96 | 262 to 263
